The assay deals with miR-124. The assay is described as follows: Induction of miR-124 expression in PBMC cells (qPCR). The class given is cell-based. Conditions: Homo sapiens, 72 h, 0.1 μM compound, human PBMCs stimulated with PMA/ionomycin, miR-191 reference gene, read-out: miR-124 expression, Fold change vs DMSO. On the procedure: This study evaluated the ability of the compound of the present invention to influence miR-124 transcriptional activity in vitro. The experiment analyzed miR-124 expression in human PBMCs (Sailybio) using quantitative PCR (qPCR).
Thawed human PBMCs (1 mL) were added to 19 mL of culture medium (RPMI1640+10% hFBS+1‰ 2-mercaptoethanol) and the PBMCs were incubated in a cell culture incubator for 30 minutes. The PBMCs were collected and the cells (3.0*10^6 cells/well/3 mL) were resuspended in medium containing PMA (10 ng/mL; Invivogen) and ionomycin (200 ng/mL; Invivogen). The cells were incubated in a 6-well plate for 48 hours. Diluted compound was added to the cells to achieve a final concentration of 0.1 μM. After 72 hours, the samples were centrifuged and the cells were collected.
Total miRNA was extracted from the cells using the MiPure Cell/Tissue miRNA Kit (Vazyme) according to the manufacturer's instructions, followed by purification. The purified samples were treated with genomic DNA elimination buffer, and reverse transcription was performed using a GeneAmp PCR System. The resulting cDNA was subjected to quantitative real-time PCR (qPCR) analysis on a QuantStudio™ 7 Flex Real-Time PCR System. Data analysis was performed using the QuantStudio 7 software with default settings to automatically determine Ct values, and the results were exported. In this assay, miR-191 was used as the reference gene, and the DMSO-treated group served as the control. The relative expression of miR-124 was calculated using the following formula: […]
Turning to `FC(F)(F)Oc1ccc(Nc2nc3ccc(Cl)cc3n3ccnc23)cc1Cl` [Compound B102, 8-chloro-N-(3-chloro-4-(trifluoromethoxy)phenyl) imidazolo[1,2-a] quinoxalin-4-amine], the fold induction at 0.1 µM was 27.3.

`Fc1cccc2c1nc(Nc1ccc(OC(F)(F)F)c(Cl)c1)c1nccn12` [Compound 44]: the fold induction at 0.1 µM stood at 17.5.

As to `CSc1ccc(Nc2nc3cccc(Cl)c3n3ccnc23)cc1` [Compound B61, 9-chloro-N-(4-(methylthio)phenyl) imidazolo [1,2-a]quinoxalin-4-amine], the fold induction at 0.1 µM is 19.9.

In the case of `FC(F)(F)c1ccc(Nc2nc3c(Cl)cccc3n3ccnc23)nc1` [Compound 34], the fold induction at 0.1 µM is 14.7.

Take `FC(F)(F)Oc1ccc(NC2=Nc3cccc(Cl)c3N3CCN=C23)cc1Cl` [Compound B120, 9-chloro-N-(3-chloro-4-(trifluoromethoxy)phenyl)-1,2-dihydroimidazo[1,2-a] quinoxalin-4-amine]: the fold induction at 0.1 µM was determined as 22.6.

For the molecule `Fc1cc(Cl)cc2c1N1CCN=C1C(Nc1ccc(OC(F)(F)F)cc1)=N2` [Compound B130, 7-chloro-9-fluoro-N-(4-(trifluoromethoxy)phenyl)-1,2-dihydroimidazo[1,2-a] quinoxalin-4-amine], the fold induction at 0.1 µM was determined as 25.6.

On to `Fc1cc(Cl)cc2c1N1CCN=C1C(Nc1ccc(C(F)(F)F)cc1)=N2` [Compound B133, 7-chloro-9-fluoro-N-(4-(trifluoromethyl)phenyl)-1,2-dihydroimidazo[1,2-a] quinoxalin-4-amine], for which the fold induction at 0.1 µM is 26.3.

For `FC(F)(F)Oc1ccc(Nc2nc3cccc(Cl)c3n3ccnc23)cc1Cl` [Compound B56, 9-chloro-N-(3-chloro-4-(trifluoromethoxy)phenyl)imidazolo [1,2-a]quinoxalin-4-amine], the fold induction at 0.1 µM is 40.7.

For the molecule `FC(F)(F)Oc1ccc(NC2=Nc3cc(Cl)cc(Cl)c3N3CCN=C23)cc1` [Compound B136, 7,9-dichloro-N-(4-(trifluoromethoxy)phenyl)-1,2-dihydroimidazo[1,2-a] quinoxalin-4-amine], the fold induction at 0.1 µM came out at 34.1.

In the case of `FC(F)(F)Oc1ccc(Nc2nc3ccc(Br)cc3n3ccnc23)cc1` [Compound B6, 8-bromo-N-(4-(trifluoromethoxy)phenyl)imidazolo [1,2-a]quinoxalin-4-amine], the fold induction at 0.1 µM stood at 22.

Regarding `Cn1c(=O)c(Nc2ccc(C(F)(F)F)cc2)nc2c(Cl)cccc21` [Compound 11], the fold induction at 0.1 µM was determined as 18.4.

Regarding `Fc1cc2nc(Nc3ccc(OC(F)(F)F)cc3)c3nccn3c2cc1Cl` [Compound B25, 8-chloro-7-fluoro-N-(4-(trifluoromethoxy)phenyl)imidazolo [1,2-a]quinoxalin-4-amine], the fold induction at 0.1 µM came out at 23.4.

`Fc1cc(Nc2nc3c(F)cc(Cl)cc3n3ccnc23)ccc1OC(F)(F)F` [Compound 56]: the fold induction at 0.1 µM worked out at 17.2.

For the molecule `FC(F)(F)Oc1ccc(Nc2nc3c(Br)cccc3n3ccnc23)cc1` [Compound 48], the fold induction at 0.1 µM came to 20.4.

As for `Fc1cc(NC2=Nc3c(F)cc(Cl)cc3N3CCN=C23)ccc1C(F)(F)F` [Compound 96], the fold induction at 0.1 µM turned out to be 17.7.

`Fc1cccc2c1N=C(Nc1ccc(OC(F)(F)F)cc1)C1=NCCN12` [Compound 73]: the fold induction at 0.1 µM turned out to be 8.59.

For `FC(F)(F)Oc1ccc(Nc2nc3cc(Br)cc(Cl)c3n3ccnc23)cc1` [Compound B23, 7-bromo-9-Chloro-N-(4-(trifluoromethoxy)phenyl)imidazolo [1,2-a]quinoxalin-4-amine], the fold induction at 0.1 µM was found to be 25.2.

For the molecule `FC(F)(F)c1ccc(NC2=Nc3ccc(Cl)cc3N3CCN=C23)cc1` [Compound B145, 8-chloro-N-(4-(trifluoromethyl)phenyl)-1,2-dihydroimidazo[1,2-a] quinoxalin-4-amine], the fold induction at 0.1 µM turned out to be 30.

Turning to `Fc1cc(Nc2nc3c(F)cccc3n3ccnc23)ccc1C(F)(F)F` [Compound 46], the fold induction at 0.1 µM is 9.99.

On to `FC(F)(F)Oc1ccc(NC2=Nc3cc(Cl)ccc3N3CCN=C23)cc1` [Compound B148, 7-chloro-N-(4-(trifluoromethoxy)phenyl)-1,2-dihydroimidazo[1,2-a] quinoxalin-4-amine], for which the fold induction at 0.1 µM came to 29.4.

As to `FC(F)(F)c1ccc(Nc2nc3cc(Cl)cc(Cl)c3n3ccnc23)cc1Cl` [Compound B98, 7,9-dichloro-N-(3-chloro-4-(trifluoromethyl)phenyl) imidazolo[1,2-a] quinoxalin-4-amine], the fold induction at 0.1 µM was found to be 22.9.

For `FC(F)(F)Oc1ccc(NC2=Nc3c(Cl)cccc3N3CCN=C23)cc1` [Compound 9], the fold induction at 0.1 µM was 26.9.

For `FC(F)(F)Oc1ccc(Nc2nc3cc(Cl)cc(Cl)c3n3ccnc23)cc1Cl` [Compound B95, 7,9-dichloro-N-(3-chloro-4-(trifluoromethoxy)phenyl) imidazolo[1,2-a] quinoxalin-4-amine], the fold induction at 0.1 µM is 24.8.

For `FC(F)(F)Oc1ccc(Nc2nc3c(Cl)cc(Cl)cc3n3ccnc23)cc1` [Compound 61], the fold induction at 0.1 µM came out at 12.1.

As to `FC(F)(F)c1ccc(Nc2nc3c(Br)cccc3n3ccnc23)cc1` [Compound 51], the fold induction at 0.1 µM was 23.1.

As to `Fc1cc(NC2=Nc3ccc(Cl)cc3N3CCN=C23)ccc1OC(F)(F)F` [Compound B143, 8-chloro-N-(3-fluoro-4-(trifluoromethoxy)phenyl)-1,2-dihydroimidazo[1,2-a] quinoxalin-4-amine], the fold induction at 0.1 µM was found to be 28.4.

As to `Fc1cccc2c1N=C(Nc1ccc(C(F)(F)F)cc1)C1=NCCN12` [Compound 74], the fold induction at 0.1 µM turned out to be 31.6.

In the case of `FC(F)(F)c1ccc(Nc2nc3cccc(Cl)c3n3ccnc23)cc1` [Compound B49, 9-chloro-N-(4-(trifluoromethyl)phenyl)imidazolo [1,2-a]quinoxalin-4-amine], the fold induction at 0.1 µM turned out to be 32.

As to `Fc1cc(F)c2c(c1)nc(Nc1ccc(OC(F)(F)F)cc1)c1nccn12` [Compound B30, 7,9-difluoro-N-(4-(trifluoromethoxy)phenyl)imidazolo [1,2-a]quinoxalin-4-amine], the fold induction at 0.1 µM was determined as 22.5.

In the case of `FC1(F)Cc2cc(Nc3nc4c(Cl)cccc4n4ccnc34)ccc2O1` [Compound 39, 6-Chloro-N-(2,2-difluoro-2,3-dihydrobenzofuran-5-yl) imidazolo [1,2-a] quinoxalin-4-amine], the fold induction at 0.1 µM is 16.8.

`FC(F)(F)c1ccc(Nc2nc3cccc(Cl)c3n3ccnc23)nc1` [Compound B67, 9-chloro-N-(5-(trifluoromethyl)pyridin-2-yl) imidazolo [1,2-a]quinoxalin-4-amine]: the fold induction at 0.1 µM came to 23.4.

On to `Fc1cc(NC2=Nc3cc(Cl)ccc3N3CCN=C23)ccc1OC(F)(F)F` [Compound B149, 7-chloro-N-(3-fluoro-4-(trifluoromethoxy)phenyl)-1,2-dihydroimidazo[1,2-a] quinoxalin-4-amine], for which the fold induction at 0.1 µM stood at 34.7.

As to `FC(F)(F)c1ccc(Nc2nc3c(Cl)cccc3n3ccnc23)cc1Cl` [Compound 29], the fold induction at 0.1 µM is 9.32.

For the molecule `FC(F)(F)c1ccc(NC2=Nc3ccc(Cl)cc3N3CCN=C23)cc1Cl` [Compound B147, 8-chloro-N-(3-chloro-4-(trifluoromethyl)phenyl)-1,2-dihydroimidazo[1,2-a] quinoxalin-4-amine], the fold induction at 0.1 µM is 27.9.

For the molecule `Fc1cc(Nc2nc3cc(Cl)cc(Cl)c3n3ccnc23)ccc1OC(F)(F)F` [Compound B94, 7,9-dichloro-N-(3-fluoro-4-(trifluoromethoxy)phenyl) imidazolo[1,2-a] quinoxalin-4-amine], the fold induction at 0.1 µM was 26.4.

Regarding `FC(F)(F)Oc1ccc(Nc2nc3c(Cl)cccc3n3cnnc23)cc1` [Compound 6], the fold induction at 0.1 µM stood at 11.9.

In the case of `FC(F)(F)c1ccc(NC2=Nc3cc(Cl)cc(Cl)c3N3CCN=C23)cc1Cl` [Compound B141, 7,9-dichloro-N-(3-chloro-4-(trifluoromethyl)phenyl)-1,2-dihydroimidazo[1,2-a] quinoxalin-4-amine], the fold induction at 0.1 µM came out at 36.2.

Take `Fc1cc(Nc2nc3cc(Cl)cc(F)c3n3ccnc23)ccc1C(F)(F)F` [Compound B91, 7-chloro-9-fluoro-N-(3-fluoro-4-(trifluoromethyl)phenyl) imidazolo[1,2-a] quinoxalin-4-amine]: the fold induction at 0.1 µM was 25.7.

Regarding `Fc1cc(NC2=Nc3cc(Cl)cc(F)c3N3CCN=C23)ccc1C(F)(F)F` [Compound B134, 7-chloro-9-fluoro-N-(3-fluoro-4-(trifluoromethyl)phenyl)-1,2-dihydroimidazo[1,2-a] quinoxalin-4-amine], the fold induction at 0.1 µM amounted to 27.5.

`Fc1cc(Cl)cc2c1N1CCN=C1C(Nc1ccc(C(F)(F)F)c(Cl)c1)=N2` [Compound B135, 7-chloro-N-(3-chloro-4-(trifluoromethyl)phenyl)-9-fluoro-1,2-dihydroimidazo[1,2-a] quinoxalin-4-amine]: the fold induction at 0.1 µM is 24.9.

For the origin of these results see US20260232662A1, “MIR-124 INDUCER, AND PREPARATION METHOD THEREFOR AND USE THEREOF” (NANJING SYNNOCARE PHARMACEUTICAL TECHNOLOGY CO., LTD., priority 2023, published 2026).
